Data as given in the NIST ThermoML archive (doi:10.1016/j.jct.2017.02.009).

Test: xn = mol fraction of the nth substance listed
Conditions: 100 kPa, Liquid; for mass density: Vibrating tube method; for viscosity: Capillary tube (Ostwald / Ubbelohde) method

O=C1CCCO1 [γ-butyrolactone] + C[S+](C)[O-]
Conditions | mass density, 293.15 K [kg/m3] | mass density, 298.15 K [kg/m3] | mass density, 303.15 K [kg/m3] | mass density, 313.15 K [kg/m3] | viscosity, 298.15 K [mPa·s]
x2 = 0 | 1129.4 | 1124.5 | 1119.6 | 1109.8 | 1.72
x2 = 0.051 | 1127.5 | 1122.6 | 1117.7 | 1107.9 | –
x2 = 0.098 | 1125.9 | 1121 | 1116.1 | 1106.3 | 1.724
x2 = 0.152 | 1124 | 1119.1 | 1114.2 | 1104.4 | –
x2 = 0.221 | 1121.7 | 1116.8 | 1111.9 | 1102.1 | 1.724
x2 = 0.251 | 1120.7 | 1115.7 | 1110.8 | 1101 | –
x2 = 0.298 | 1119.1 | 1114.2 | 1109.3 | 1099.5 | 1.724
x2 = 0.352 | 1117.4 | 1112.5 | 1107.6 | 1097.8 | –
x2 = 0.398 | 1116 | 1111 | 1106.1 | 1096.3 | 1.739
x2 = 0.447 | 1114.5 | 1109.6 | 1104.7 | 1094.8 | –
x2 = 0.498 | 1113 | 1108 | 1103.1 | 1093.3 | 1.763
x2 = 0.546 | 1111.6 | 1106.6 | 1101.7 | 1091.9 | –
x2 = 0.596 | 1110.2 | 1105.2 | 1100.3 | 1090.4 | 1.791
x2 = 0.648 | 1108.7 | 1103.8 | 1098.8 | 1089 | –
x2 = 0.7 | 1107.4 | 1102.4 | 1097.4 | 1087.6 | 1.839
x2 = 0.742 | 1106.3 | 1101.3 | 1096.4 | 1086.4 | –
x2 = 0.797 | 1104.9 | 1099.9 | 1094.9 | 1085 | 1.883
x2 = 0.848 | 1103.6 | 1098.7 | 1093.7 | 1083.7 | –
x2 = 0.9 | 1102.4 | 1097.4 | 1092.4 | 1082.5 | 1.921
x2 = 0.95 | 1101.3 | 1096.3 | 1091.3 | 1081.3 | –
